Results published in the supplement of paper PMC9663587.

Key:
Volasertib/BI6727 = compound: CC[C@@H]1C(=O)N(C)c2cnc(Nc3ccc(C(=O)N[C@H]4CC[C@H](N5CCN(CC6CC6)CC5)CC4)cc3OC)nc2N1C(C)C [Volasertib/BI6727]
Ceritinib/LDK378 = compound: Cc1cc(Nc2ncc(Cl)c(Nc3ccccc3S(=O)(=O)C(C)C)n2)c(OC(C)C)cc1C1CCNCC1 [Ceritinib/LDK378]
INK128/MLN0128 = compound: CC(C)n1nc(-c2ccc3oc(N)nc3c2)c2c(N)ncnc21 [INK128/MLN0128]
Neratinib/HKI272 [1] = compound: T1, CCOc1cc2ncc(C#N)c(Nc3ccc(OCc4ccccn4)c(Cl)c3)c2cc1NC(=O)/C=C/CN(C)C [Neratinib/HKI272]
[2] = compound: COc1ccc2c(c1)[C@]1(C[C@H]1c1ccc3c(/C=C/c4ccc(CN5C[C@@H](C)O[C@@H](C)C5)cc4)n[nH]c3c1)C(=O)N2
LEE011/Ribociclib [3] = compound: T2, CN(C)C(=O)c1cc2cnc(Nc3ccc(N4CCNCC4)cn3)nc2n1C1CCCC1 [LEE011/Ribociclib]
Tivantinib/ARQ197 = compound: O=C1NC(=O)[C@@H](c2cn3c4c(cccc24)CCC3)[C@@H]1c1c[nH]c2ccccc12 [Tivantinib/ARQ197]
Paclitaxel = compound: CC(=O)O[C@H]1C(=O)[C@@]2(C)[C@H]([C@H](OC(=O)c3ccccc3)[C@]3(O)C[C@H](OC(=O)[C@H](O)[C@@H](NC(=O)c4ccccc4)c4ccccc4)C(C)=C1C3(C)C)[C@]1(OC(C)=O)CO[C@@H]1C[C@@H]2O [Paclitaxel]
ABT-737 = compound: CN(C)CC[C@H](CSc1ccccc1)Nc1ccc(S(=O)(=O)NC(=O)c2ccc(N3CCN(Cc4ccccc4-c4ccc(Cl)cc4)CC3)cc2)cc1[N+](=O)[O-] [ABT-737]
Taselisib/GDC0032 = compound: Cc1nc(-c2cn3c(n2)-c2ccc(-c4cnn(C(C)(C)C(N)=O)c4)cc2OCC3)n(C(C)C)n1 [Taselisib/GDC0032]
Pictilisib/GDC0941 = compound: CS(=O)(=O)N1CCN(Cc2cc3nc(-c4cccc5[nH]ncc45)nc(N4CCOCC4)c3s2)CC1 [Pictilisib/GDC0941]
THZ531 = compound: CN(C)C/C=C/C(=O)Nc1ccc(C(=O)N2CCC[C@@H](Nc3ncc(Cl)c(-c4c[nH]c5ccccc45)n3)C2)cc1 [THZ531]
[4] = compound: CCN1CCN(Cc2ccc(Nc3ncc(F)c(-c4cc(F)c5nc(C)n(C(C)C)c5c4)n3)nc2)CC1
BSJ-03-123 = compound: CC(=O)c1c(C)c2cnc(Nc3ccc(N4CCN(CCOCCOCCOCCNC(=O)COc5cccc6c5C(=O)N(C5CCC(=O)NC5=O)C6=O)CC4)cn3)nc2n(C2CCCC2)c1=O [BSJ-03-123]; assay: GR value, 72 h; higher = faster growth (1 = untreated, <0 = killing);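 also: breast cancer and non-malignant breast epithelial lines, nine half-log doses, viable cells counted by Hoechst and LIVE/DEAD dye imaging versus time-zero plates and DMSO controls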
YKL-5-124 = compound: C=CC(=O)Nc1ccc(C(=O)Nc2[nH]nc3c2CN(C(=O)N[C@H](CN(C)C)c2ccccc2)C3(C)C)cc1 [YKL-5-124]; assay: as above
Neratinib/HKI272 [5] = compound: T1, Neratinib/HKI272; assay: as above
[6] = compound: CCc1cnn2c(NCc3ccc[n+]([O-])c3)cc(N3CCCC[C@H]3CCO)nc12; assay: as above
LEE011/Ribociclib [7] = compound: T2, LEE011/Ribociclib; assay: as above
[8] = compound: CCN1CCN(Cc2ccc(Nc3ncc(F)c(-c4cc(F)c5nc(C)n(C(C)C)c5c4)n3)nc2)CC1; assay: as above
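For GR50, 72 h in this document: breast cancer and non-malignant breast epithelial cell lines, Deep Dye Drop or Dye Drop imaging, nine half-log doses, GR normalized to time-zero plates and DMSO-only controls.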

## PDX1328
Volasertib/BI6727
  GR50, 72 h: 0.00437 µM
Ceritinib/LDK378
  GR50, 72 h: 0.629 µM
INK128/MLN0128
  GR50, 72 h: 0.00569 µM
Neratinib/HKI272 [1]
  GR50, 72 h: 0.264 µM
[2]
  GR50, 72 h: 0.00595 µM
LEE011/Ribociclib [3]
  GR50, 72 h: 0.349 µM
Tivantinib/ARQ197
  GR50, 72 h: 0.239 µM
Paclitaxel
  GR50, 72 h: 0.00287 µM
ABT-737
  GR50, 72 h: 1.56 µM
Taselisib/GDC0032
  GR50, 72 h: 0.0544 µM
Pictilisib/GDC0941
  GR50, 72 h: 0.878 µM
THZ531
  GR50, 72 h: 0.0399 µM
[4]
  GR50, 72 h: 0.0288 µM
BSJ-03-123; 0.001 µM
  GR value: 0.951 GR
BSJ-03-123; 0.003162 µM
  GR value: 0.816 GR
BSJ-03-123; 0.01 µM
  GR value: 0.819 GR
BSJ-03-123; 0.03162 µM
  GR value: 0.792 GR
BSJ-03-123; 0.1 µM
  GR value: 0.852 GR
BSJ-03-123; 0.3162 µM
  GR value: 0.646 GR
BSJ-03-123; 1 µM
  GR value: 0.479 GR
BSJ-03-123; 3.162 µM
  GR value: 0.531 GR
BSJ-03-123; 10 µM
  GR value: 0.0901 GR
YKL-5-124; 0.001 µM
  GR value: 0.525 GR
YKL-5-124; 0.003162 µM
  GR value: 0.572 GR
YKL-5-124; 0.01 µM
  GR value: 0.406 GR
YKL-5-124; 0.03162 µM
  GR value: 0.424 GR
YKL-5-124; 0.1 µM
  GR value: 0.45 GR
YKL-5-124; 0.3162 µM
  GR value: 0.301 GR
YKL-5-124; 1 µM
  GR value: 0.351 GR
YKL-5-124; 3.162 µM
  GR value: 0.295 GR
YKL-5-124; 10 µM
  GR value: -0.0349 GR
Neratinib/HKI272 [5]; 0.0003162 µM
  GR value: 1.02 GR
Neratinib/HKI272 [5]; 0.001 µM
  GR value: 1.02 GR
Neratinib/HKI272 [5]; 0.003162 µM
  GR value: 1.01 GR
Neratinib/HKI272 [5]; 0.01 µM
  GR value: 0.898 GR
Neratinib/HKI272 [5]; 0.03162 µM
  GR value: 0.762 GR
Neratinib/HKI272 [5]; 0.1 µM
  GR value: 0.675 GR
Neratinib/HKI272 [5]; 0.3162 µM
  GR value: 0.537 GR
Neratinib/HKI272 [5]; 1 µM
  GR value: 0.223 GR
Neratinib/HKI272 [5]; 3.162 µM
  GR value: 0.0191 GR
[6]; 0.0001 µM
  GR value: 1.05 GR
[6]; 0.0003162 µM
  GR value: 1.11 GR
[6]; 0.001 µM
  GR value: 1.06 GR
[6]; 0.003162 µM
  GR value: 1.05 GR
[6]; 0.01 µM
  GR value: 0.907 GR
[6]; 0.03162 µM
  GR value: -0.453 GR
[6]; 0.1 µM
  GR value: -0.581 GR
[6]; 0.3162 µM
  GR value: -0.571 GR
[6]; 1 µM
  GR value: -0.53 GR
LEE011/Ribociclib [7]; 0.001 µM
  GR value: 0.927 GR
LEE011/Ribociclib [7]; 0.003162 µM
  GR value: 0.816 GR
LEE011/Ribociclib [7]; 0.01 µM
  GR value: 0.661 GR
LEE011/Ribociclib [7]; 0.03162 µM
  GR value: 0.649 GR
LEE011/Ribociclib [7]; 0.1 µM
  GR value: 0.481 GR
LEE011/Ribociclib [7]; 0.3162 µM
  GR value: 0.514 GR
LEE011/Ribociclib [7]; 1 µM
  GR value: 0.528 GR
LEE011/Ribociclib [7]; 3.162 µM
  GR value: 0.394 GR
LEE011/Ribociclib [7]; 10 µM
  GR value: 0.425 GR
[8]; 0.001 µM
  GR value: 0.866 GR
[8]; 0.003162 µM
  GR value: 0.775 GR
[8]; 0.01 µM
  GR value: 0.537 GR
[8]; 0.03162 µM
  GR value: 0.323 GR
[8]; 0.1 µM
  GR value: 0.266 GR
[8]; 0.3162 µM
  GR value: 0.301 GR
[8]; 1 µM
  GR value: 0.263 GR
[8]; 3.162 µM
  GR value: 0.176 GR
[8]; 10 µM
  GR value: -0.621 GR
